Laboratory results as given in the NIST ThermoML archive (doi:10.1021/je1005196).
± gives the expanded uncertainty stated by the source.

Key:
[1] = excess molar enthalpy (molar enthalpy of mixing); xn = mol fraction of the nth substance listed; details: 308.15 K, 101 kPa, Liquid, Calvet calorimetry
[2] = xn = mol fraction of the nth substance listed; details: 308.15 K, 101 kPa, Liquid; for excess molar volume: Direct dilatometry; for speed of sound: Linear variable-path acoustic interferometer
[3] = Liquid; for speed of sound / mass density: 101.33 kPa; for speed of sound: Linear variable-path acoustic interferometer; for mass density: Pycnometric method
[4] = 298.15 K, Closed cell (Static) method

Work on `Nc1ccccc1` [aniline] + C1CCOCC1 yielded an excess molar enthalpy ([1]; x2 = 0.0545) of -0.02 ± 0.000502 kcal/mol, an excess molar enthalpy ([1]; x2 = 0.1711) of -0.0599 ± 0.00134 kcal/mol and an excess molar enthalpy ([1]; x2 = 0.2234) of -0.0767 ± 0.0017 kcal/mol. It also gave an excess molar enthalpy ([1]; x2 = 0.2761) of -0.0929 ± 0.00203 kcal/mol, an excess molar enthalpy ([1]; x2 = 0.3509) of -0.114 ± 0.00239 kcal/mol and an excess molar enthalpy ([1]; x2 = 0.4214) of -0.132 ± 0.00287 kcal/mol. It also gave an excess molar enthalpy ([1]; x2 = 0.5512) of -0.155 ± 0.00335 kcal/mol, an excess molar enthalpy ([1]; x2 = 0.5879) of -0.158 ± 0.00335 kcal/mol and an excess molar enthalpy ([1]; x2 = 0.6213) of -0.159 ± 0.00335 kcal/mol. For the same molecule, the excess molar enthalpy ([1]; x2 = 0.6821) was -0.157 ± 0.00335 kcal/mol, the excess molar enthalpy ([1]; x2 = 0.7511) was -0.147 ± 0.00311 kcal/mol and the excess molar enthalpy ([1]; x2 = 0.8145) was -0.128 ± 0.00287 kcal/mol. The excess molar enthalpy ([1]; x2 = 0.8914) was -0.0893 ± 0.00196 kcal/mol, the excess molar enthalpy ([1]; x2 = 0.9413) was -0.0539 ± 0.00122 kcal/mol and the excess molar volume ([2]; x2 = 0.0702) was -9.7e-08 ± 2e-09 m3/mol. For the same molecule, the excess molar volume ([2]; x2 = 0.1767) was -2.45e-07 ± 3e-09 m3/mol, the excess molar volume ([2]; x2 = 0.2381) was -3.22e-07 ± 4e-09 m3/mol and the excess molar volume ([2]; x2 = 0.2952) was -3.84e-07 ± 5e-09 m3/mol. It also gave an excess molar volume ([2]; x2 = 0.3347) of -4.2e-07 ± 5e-09 m3/mol, an excess molar volume ([2]; x2 = 0.3913) of -4.59e-07 ± 5e-09 m3/mol and an excess molar volume ([2]; x2 = 0.4354) of -4.8e-07 ± 5e-09 m3/mol. The excess molar volume ([2]; x2 = 0.4904) was -4.92e-07 ± 6e-09 m3/mol, the excess molar volume ([2]; x2 = 0.5525) was -4.87e-07 ± 5e-09 m3/mol and the excess molar volume ([2]; x2 = 0.628) was -4.56e-07 ± 5e-09 m3/mol. It also gave an excess molar volume ([2]; x2 = 0.6989) of -4.01e-07 ± 5e-09 m3/mol, an excess molar volume ([2]; x2 = 0.7412) of -3.59e-07 ± 4e-09 m3/mol and an excess molar volume ([2]; x2 = 0.8548) of -2.15e-07 ± 3e-09 m3/mol. For the same molecule, the excess molar volume ([2]; x2 = 0.9204) was -1.19e-07 ± 3e-09 m3/mol, the speed of sound ([2]; x2 = 0.0912) was 1564 ± 3 m/s and the speed of sound ([2]; x2 = 0.1516) was 1543 ± 3 m/s. It also gave a speed of sound ([2]; x2 = 0.2414) of 1510 ± 3 m/s, a speed of sound ([2]; x2 = 0.299) of 1490 ± 3 m/s and a speed of sound ([2]; x2 = 0.3541) of 1470 ± 3 m/s. For the same molecule, the speed of sound ([2]; x2 = 0.4417) was 1438 ± 3 m/s, the speed of sound ([2]; x2 = 0.5312) was 1404 ± 3 m/s and the speed of sound ([2]; x2 = 0.5943) was 1379 ± 3 m/s. The speed of sound ([2]; x2 = 0.6511) was 1357 ± 3 m/s, the speed of sound ([2]; x2 = 0.7344) was 1324 ± 3 m/s and the speed of sound ([2]; x2 = 0.8117) was 1294 ± 3 m/s. The speed of sound ([2]; x2 = 0.883) was 1267 ± 3 m/s, the speed of sound ([2]; x2 = 0.9413) was 1245 ± 3 m/s and the speed of sound ([2]; x2 = 0.9812) was 1231 ± 3 m/s.

`CNc1ccccc1` [N-methylaniline] + C1CCOCC1 gave an excess molar enthalpy ([1]; x2 = 0.0856) of -0.0264 ± 0.000645 kcal/mol, an excess molar enthalpy ([1]; x2 = 0.1321) of -0.0407 ± 0.000932 kcal/mol and an excess molar enthalpy ([1]; x2 = 0.1976) of -0.06 ± 0.00134 kcal/mol. For the same molecule, the excess molar enthalpy ([1]; x2 = 0.2434) was -0.0727 ± 0.0016 kcal/mol, the excess molar enthalpy ([1]; x2 = 0.3122) was -0.0899 ± 0.00196 kcal/mol and the excess molar enthalpy ([1]; x2 = 0.3876) was -0.105 ± 0.00229 kcal/mol. It also gave an excess molar enthalpy ([1]; x2 = 0.4444) of -0.114 ± 0.00239 kcal/mol, an excess molar enthalpy ([1]; x2 = 0.4878) of -0.119 ± 0.00263 kcal/mol and an excess molar enthalpy ([1]; x2 = 0.5548) of -0.122 ± 0.00263 kcal/mol. For the same molecule, the excess molar enthalpy ([1]; x2 = 0.6233) was -0.121 ± 0.00263 kcal/mol, the excess molar enthalpy ([1]; x2 = 0.6921) was -0.113 ± 0.00239 kcal/mol and the excess molar enthalpy ([1]; x2 = 0.7432) was -0.104 ± 0.00227 kcal/mol. The excess molar enthalpy ([1]; x2 = 0.8767) was -0.0624 ± 0.00139 kcal/mol, the excess molar enthalpy ([1]; x2 = 0.9549) was -0.0256 ± 0.000621 kcal/mol and the excess molar volume ([2]; x2 = 0.0764) was -7.2e-08 ± 2e-09 m3/mol. For the same molecule, the excess molar volume ([2]; x2 = 0.1416) was -1.25e-07 ± 3e-09 m3/mol, the excess molar volume ([2]; x2 = 0.1921) was -1.59e-07 ± 3e-09 m3/mol and the excess molar volume ([2]; x2 = 0.244) was -1.89e-07 ± 3e-09 m3/mol. For the same molecule, the excess molar volume ([2]; x2 = 0.2905) was -2.1e-07 ± 3e-09 m3/mol, the excess molar volume ([2]; x2 = 0.3451) was -2.27e-07 ± 3e-09 m3/mol and the excess molar volume ([2]; x2 = 0.3984) was -2.37e-07 ± 3e-09 m3/mol. For the same molecule, the excess molar volume ([2]; x2 = 0.4515) was -2.4e-07 ± 3e-09 m3/mol, the excess molar volume ([2]; x2 = 0.5224) was -2.34e-07 ± 3e-09 m3/mol and the excess molar volume ([2]; x2 = 0.613) was -2.1e-07 ± 3e-09 m3/mol. For the same molecule, the excess molar volume ([2]; x2 = 0.6873) was -1.78e-07 ± 3e-09 m3/mol, the excess molar volume ([2]; x2 = 0.7531) was -1.44e-07 ± 3e-09 m3/mol and the excess molar volume ([2]; x2 = 0.8231) was -1.03e-07 ± 2e-09 m3/mol. It also gave an excess molar volume ([2]; x2 = 0.9191) of -4.5e-08 ± 2e-09 m3/mol, a speed of sound ([2]; x2 = 0.0541) of 1509 ± 3 m/s and a speed of sound ([2]; x2 = 0.1321) of 1490 ± 3 m/s. The speed of sound ([2]; x2 = 0.2316) was 1468 ± 3 m/s, the speed of sound ([2]; x2 = 0.2811) was 1457 ± 3 m/s and the speed of sound ([2]; x2 = 0.3612) was 1437 ± 3 m/s. The speed of sound ([2]; x2 = 0.4112) was 1424 ± 3 m/s, the speed of sound ([2]; x2 = 0.4932) was 1400 ± 3 m/s and the speed of sound ([2]; x2 = 0.5638) was 1377 ± 3 m/s. The speed of sound ([2]; x2 = 0.6148) was 1360 ± 3 m/s, the speed of sound ([2]; x2 = 0.6919) was 1332 ± 3 m/s and the speed of sound ([2]; x2 = 0.7418) was 1313 ± 3 m/s. For the same molecule, the speed of sound ([2]; x2 = 0.8141) was 1287 ± 3 m/s, the speed of sound ([2]; x2 = 0.8992) was 1257 ± 3 m/s and the speed of sound ([2]; x2 = 0.9514) was 1239 ± 3 m/s.

With `Nc1ccccc1` [aniline] the speed of sound ([3]; 298.15 K) was 1635 ± 3 m/s, the mass density ([3]; 298.15 K) was 1017.2 ± 0.6 kg/m3 and the “vapor or sublimation pressure” value [3, 4] was 0.0933 ± 0.08 kPa. The “vapor or sublimation pressure” value ([3]; 308.15 K) was 0.12 ± 0.08 kPa.

With `CNc1ccccc1` [N-methylaniline] the speed of sound ([3]; 298.15 K) was 1572 ± 3 m/s, the mass density ([3]; 298.15 K) was 982.4 ± 1.3 kg/m3 and the “vapor or sublimation pressure” value [3, 4] was 0.0667 ± 0.08 kPa. For the same molecule, the “vapor or sublimation pressure” value ([3]; 308.15 K) was 0.1067 ± 0.08 kPa.

Molecule `Cc1ccccc1N` [2-methylaniline] + C1CCOCC1 has an excess molar enthalpy ([1]; x2 = 0.0701) of -0.0286 ± 0.000693 kcal/mol, an excess molar enthalpy ([1]; x2 = 0.1765) of -0.0678 ± 0.00151 kcal/mol and an excess molar enthalpy ([1]; x2 = 0.2379) of -0.0874 ± 0.00191 kcal/mol. It also gave an excess molar enthalpy ([1]; x2 = 0.295) of -0.103 ± 0.00225 kcal/mol, an excess molar enthalpy ([1]; x2 = 0.3344) of -0.113 ± 0.00239 kcal/mol and an excess molar enthalpy ([1]; x2 = 0.3911) of -0.124 ± 0.00263 kcal/mol. For the same molecule, the excess molar enthalpy ([1]; x2 = 0.435) was -0.137 ± 0.00287 kcal/mol, the excess molar enthalpy ([1]; x2 = 0.4901) was -0.137 ± 0.00287 kcal/mol and the excess molar enthalpy ([1]; x2 = 0.5521) was -0.139 ± 0.00311 kcal/mol. For the same molecule, the excess molar enthalpy ([1]; x2 = 0.6276) was -0.136 ± 0.00287 kcal/mol, the excess molar enthalpy ([1]; x2 = 0.6982) was -0.126 ± 0.00263 kcal/mol and the excess molar enthalpy ([1]; x2 = 0.741) was -0.117 ± 0.00263 kcal/mol. It also gave an excess molar enthalpy ([1]; x2 = 0.8546) of -0.0792 ± 0.00174 kcal/mol, an excess molar enthalpy ([1]; x2 = 0.9201) of -0.048 ± 0.00108 kcal/mol and an excess molar volume ([2]; x2 = 0.1881) of -3.94e-07 ± 5e-09 m3/mol. The excess molar volume ([2]; x2 = 0.2321) was -4.57e-07 ± 5e-09 m3/mol, the excess molar volume ([2]; x2 = 0.2967) was -5.47e-07 ± 6e-09 m3/mol and the excess molar volume ([2]; x2 = 0.3245) was -5.75e-07 ± 6e-09 m3/mol. The excess molar volume ([2]; x2 = 0.3834) was -6.36e-07 ± 7e-09 m3/mol, the excess molar volume ([2]; x2 = 0.4704) was -7.08e-07 ± 8e-09 m3/mol and the excess molar volume ([2]; x2 = 0.5181) was -7.32e-07 ± 8e-09 m3/mol. It also gave an excess molar volume ([2]; x2 = 0.5423) of -7.37e-07 ± 8e-09 m3/mol, an excess molar volume ([2]; x2 = 0.6112) of -7.45e-07 ± 8e-09 m3/mol and an excess molar volume ([2]; x2 = 0.6877) of -7.22e-07 ± 8e-09 m3/mol. It also gave an excess molar volume ([2]; x2 = 0.7414) of -6.82e-07 ± 7e-09 m3/mol, an excess molar volume ([2]; x2 = 0.8213) of -5.66e-07 ± 6e-09 m3/mol and an excess molar volume ([2]; x2 = 0.8974) of -3.81e-07 ± 5e-09 m3/mol. The excess molar volume ([2]; x2 = 0.9426) was -2.35e-07 ± 3e-09 m3/mol, the speed of sound ([2]; x2 = 0.0832) was 1535 ± 3 m/s and the speed of sound ([2]; x2 = 0.1451) was 1505 ± 3 m/s. The speed of sound ([2]; x2 = 0.2102) was 1475 ± 3 m/s, the speed of sound ([2]; x2 = 0.2918) was 1441 ± 3 m/s and the speed of sound ([2]; x2 = 0.3581) was 1414 ± 3 m/s. It also gave a speed of sound ([2]; x2 = 0.4002) of 1399 ± 3 m/s, a speed of sound ([2]; x2 = 0.4981) of 1364 ± 3 m/s and a speed of sound ([2]; x2 = 0.5638) of 1343 ± 3 m/s. It also gave a speed of sound ([2]; x2 = 0.6118) of 1328 ± 3 m/s, a speed of sound ([2]; x2 = 0.7148) of 1299 ± 3 m/s and a speed of sound ([2]; x2 = 0.7981) of 1277 ± 3 m/s. For the same molecule, the speed of sound ([2]; x2 = 0.8412) was 1267 ± 3 m/s, the speed of sound ([2]; x2 = 0.9003) was 1253 ± 3 m/s and the speed of sound ([2]; x2 = 0.9628) was 1240 ± 3 m/s.

With `C1CCOCC1` [tetrahydropyran] the mass density ([3]; 298.15 K) was 868.6 ± 0.5 kg/m3, the “vapor or sublimation pressure” value [3, 4] was 9.533 ± 0.08 kPa and the “vapor or sublimation pressure” value ([3]; 308.15 K) was 13.79 ± 0.47 kPa.

For `Cc1ccccc1N` [2-methylaniline], the speed of sound ([3]; 298.15 K) was 1602 ± 3 m/s, the mass density ([3]; 298.15 K) was 994.2 ± 0.6 kg/m3 and the “vapor or sublimation pressure” value [3, 4] was 0.04 kPa. For the same molecule, the “vapor or sublimation pressure” value ([3]; 308.15 K) was 0.0667 ± 0.08 kPa.
